Source: patent US8748468B2, “Manufacture, compositions and uses of coagulation factor VIIa modulator” (Pharmacyclics, Inc., priority 2007, dated 2014)
“Also recorded” adds a separate entry of the source. Where two headings read alike, the source gives them in different places.

Key:
[1] = Pharmacokinetics after intravenous and subcutaneous administration in cynomolgus monkeys; format: in vivo; settings: for AUC(0-t): read-out: AUC 0-48
Method: A study was performed in cynomolgus monkeys with the compound of Formula I to provide information on its pharmacokinetics following intravenous and subcutaneous administration and to determine its subcutaneous bioavailability. The test compound was administered intravenously in a solution (1.76 mg/mL) composition and subcutaneously in a gel composition (107 mg/mL).

[2] = Plasma concentrations in C57BL/6 mice (LC-MS/MS); format: in vivo; settings: for Drug plasma concentrations: all dose levels
Method: (§1) C57BL/6 mice were dosed with a compound of Formula I in a gel composition by subcutaneous injection twice daily for 2 days. Plasma concentrations of a compound of Formula I were measured by LC-MS/MS at select time points following doses 3 and 4. Following drug administration, plasma levels were elevated in a dose dependent manner reaching 15 ug/ml 3 hours after dose 3 at 45 mg/kg/dose. […] Maximal drug plasma levels reached greater than 30 ug/ml 2 hours following dose 4 at 45 mg/kg/dose and dropped to 13 ug/ml by 4 hours post dosing. […] Prothrombin (PT) times were measured at 0 (predose), 2, 4, and 18 hours after the 4th dose administration.

B16F10 melanoma cells = assay: Lung colonization by B16F10 melanoma cells in mice; format: in vivo; settings: 1.5 h before and 4.5 h and 24 h after tumor cell inoculation, compared to control vehicle
Method: In this experiment, the compound of Formula I was administered subcutaneously 1.5 h before tumor cell inoculation, and then 4.5 h and 24 h after tumor cell inoculation. In the absence of the compound of Formula I (i.e., the vehicle alone), a substantial number of colonies formed in the majority of the inoculated mice. […] As a result, in some embodiments, the compound of Formula I inhibit the metastasis of tumor cells.
The compound of Formula I (3×50 mg/kg; 3×100 mg/kg) and a control vehicle were administered subcutaneously 1.5 hours before tumor cell inoculation and then at 4.5 hours and 24 hours after tumor cell inoculation.

Prothrombin (PT) time = assay: Prothrombin time changes in C57BL/6 mice; format: in vivo; settings: 2 hours following the 4th dose, 45 mg/kg/dose, gel SC twice daily
Method: as §1

[3] = Animal PK studies, subcutaneous, dog; format: in vivo; settings: plasma, sc
Method: In dogs, the time to reach maximum plasma concentrations (Tmax) following subcutaneous injection of a compound of Formula I was 0.5 hours.

[4] = Animal PK studies, subcutaneous, rat; settings: in vivo, sc, subcutaneous administration, read-out: terminal half-life (t1/2) (converted)
[5] = Animal PK studies, subcutaneous, baboon; format: in vivo; settings: plasma, sc
[6] = test system: FVIIa-induced IL-8 response in MDA-MB-231 human breast cancer cells; assay: FVIIa-induced IL-8 response in MDA-MB-231 human breast cancer cells; format: cell-based; settings: 1 μM added to the medium; MDA-MB-231 cells incubated with FVIIa
From the text: Secretion of the chemokine IL-8 increased to over 3-fold of baseline.

[7] = Toxicology study, 28 or 29 days subcutaneous, cynomolgus monkeys; format: in vivo; settings: for NOAEL: sc
Method: Cynomolgus monkeys were administered a gel formulation of a compound of Formula I twice daily by subcutaneous injection for 28 or 29 consecutive days at a total daily dosage of 0 (vehicle), 3, 12, or 36 mg/kg/day (HED=0.96, 3.84, and 11.5 mg/kg/day, respectively).

[8] = test system: Lewis lung carcinoma tumor; assay: Lewis lung carcinoma tumor growth in C57BL mice; format: in vivo; settings: for tumor volume compared to the control: gel formulation SC, 6, 9, 13, and 15 days after start of dosing
Method: In this example, the compound of Formula I was administered subcutaneously starting 4 days after tumor cell implantation in the mice (the two different dosing schedules are described in FIG. 2). […] As a result, the compound of Formula I inhibits the growth of tumor cells.
In a follow-up tumor suppression study, the compound of Formula I reduced Lewis lung carcinoma tumor growth in C57BL mice by approximately 50% when given twice daily at subcutaneous doses 22.5, 45, and 90 mg/kg (FIG. 3).
The compound of Formula I was administered in a gel formulation subcutaneously starting 4 days after tumor cell implantation. Tumor volume in the control experiment continued to increase from about 100 mm^3 at 6 days to above 400 mm^3 after 13 days and above 500 mm^3 after 15 days after start of dosing.

[9] = Animal PK studies, subcutaneous, monkey; settings: in vivo, sc, subcutaneous administration, read-out: terminal half-life (t1/2)
[10] = Animal PK studies, subcutaneous bioavailability across species; format: in vivo; settings: rat, dog, monkey, baboon, plasma, sc; administered subcutaneously in a solution; rats, dogs, monkeys, and baboons
[11] = cynomolgus monkey, plasma, sc, Subcutaneous Gel, 10.7 mg/kg, n = 3
[12] = cynomolgus monkey, plasma, Intravenous Solution, 1.76 mg/kg, n = 4
[13] = subcutaneous administration, read-out: terminal half-life (t1/2) (converted)

With `N=C(N)c1ccc2nc(-c3cc(CC(=O)N[C@@H](CC(=O)O)C(=O)O)cc(-c4cc(S(N)(=O)=O)ccc4O)c3O)[nH]c2c1` [compound of Formula I] the “subcutaneous Cmax as percent of the Cmax observed following intravenous dose” value ([1]; 10.7 mg/kg subcutaneous vs 1.76 mg/kg intravenous) was 74%, the half-life ([1]; cynomolgus monkey, plasma, iv, 1.76 mg/kg, Intravenous Solution, 1.76 mg/kg, n = 4, read-out: t1/2 α (converted)) was 0.162 h and the half-life ([1]; cynomolgus monkey, plasma, iv, 1.76 mg/kg, Intravenous Solution, 1.76 mg/kg, n = 4, read-out: t1/2 β (converted)) was 2.19 h. It also gave a half-life ([1]; cynomolgus monkey, plasma, iv, 1.76 mg/kg, Intravenous Solution, 1.76 mg/kg, n = 4, read-out: t1/2 γ (converted)) of 7.07 h, a half-life ([1]; cynomolgus monkey, plasma, sc, 10.7 mg/kg, Subcutaneous Gel, 10.7 mg/kg, n = 3, read-out: Terminal t1/2 (converted)) of 7.43 h and a Cmax ([1]; cynomolgus monkey, plasma, sc, Subcutaneous Gel (107 mg/mL), 10.7 mg/kg, n = 3) of 11600 ng/mL. It also gave an AUC(0-inf) [1, 11] of 172 µg·h/mL, a CL/F [1, 11] of 1.07 mL/min/kg and a Tmax [1, 11] of 3.33 h. It also gave an AUC(0-t) [1, 11] of 171 µg·h/mL, a bioavailability ([1]; cynomolgus monkey, plasma, sc, Subcutaneous Gel, single 10.7 mg/kg dose, n = 3, estimated, read-out: Bioavailabilty (subcutaneous)) of 138 ± 33% and a Cmax [1, 12] of 15700 ng/mL. For the same compound, the MRT [1, 12] was 5.15 h, the clearance [1, 12] was 1.4 mL/min/kg and the AUC(0-t) [1, 12] was 21.2 µg·h/mL. For the same compound, the Vd ([1]; cynomolgus monkey, plasma, Intravenous Solution, 1.76 mg/kg, n = 4, read-out: Vss) was 0.43 L/kg, the Drug plasma concentrations ([2]; 6 hours after dose 3) was “had dropped significantly” and the Drug plasma concentrations ([2]; 18 hours following dose 4) was “at or near baseline”. For the same compound, the Drug plasma concentration ([2]; gel SC twice daily, 2 hours following dose 4 at 22.5 mg/kg/dose) was 11000 ng/mL, the “Maximal drug plasma level” value ([2]; gel SC twice daily, 2 hours following dose 4 at 45 mg/kg/dose) was “greater than 30 ug/ml” and the plasma level ([2]; gel SC twice daily, 3 hours after dose 3 at 45 mg/kg/dose) was 15000 ng/mL. The Drug plasma concentration ([2]; gel SC twice daily, 4 hours following dose 4 at 22.5 mg/kg/dose) was “stayed elevated”, the drug plasma level ([2]; gel SC twice daily, 4 hours post dose 4 at 45 mg/kg/dose) was 13000 ng/mL and the “Bl6F10 colonies formed in the lung” value (B16F10 melanoma cells; 3×50 mg/kg SC, 50 mg/kg) was “substantially fewer colonies were formed”. The “Bl6F10 colonies formed in the lung” value (B16F10 melanoma cells; 3×100 mg/kg SC, 100 mg/kg) was “substantially fewer colonies; also recorded: the number of colonies further dropped”, the “maximal change in PT time” value (Prothrombin (PT) time) was 1.8 times baseline and the half-life [3, 13] was 5.68 h. For the same compound, the Tmax ([3]; subcutaneous injection, dogs, read-out: time to reach maximum plasma concentrations (Tmax)) was 0.5 h, the half-life [4] was 2.67 h and the half-life [5, 13] was 7.21 h. For the same compound, the Tmax ([5]; subcutaneous injection, baboons, read-out: time to reach maximum plasma concentrations (Tmax)) was 2.75 h, the “FVIIa-induced IL-8 response” value [6] was “completely abrogated” and the “sternum-bone marrow and spleen findings” value ([7]; cynomolgus monkey, in vivo) was “shifts indicative of increased erythropoiesis”. For the same compound, the kidney medulla finding ([7]; cynomolgus monkey, in vivo, 36 mg/kg/day) was “minimal to mild widening of the interstitium along the medullary rays”, the NOAEL ([7]; cynomolgus monkey, in vivo) was 3 mg/kg/day and the NOAEL ([7]; cynomolgus monkey, in vivo, subcutaneous administration for 28 or 29 consecutive days, read-out: NOAEL as HED) was 0.96 mg/kg/day. For the same compound, the unscheduled euthanasia ([7]; one female, 36 mg/kg/day group, abnormally high aPTT prior to dosing) was “euthanized after 3 days of dosing due to severe external hemorrhage”, the “reduction in tumor volume” value ([8]; SC starting 4 days after tumor cell implantation, depending on the dosing schedule, p<0.01) was at least 50% and the “reduction of Lewis lung carcinoma tumor growth” value ([8]; follow-up study, twice daily subcutaneous doses 22.5, 45, and 90 mg/kg) was “approximately 50%”. The “tumor volume compared to the control” value ([8]; 100 mg/kg bid x4d followed by 60 mg/kg bid, P<0.01) was “a reduction in the tumor volume”, the “tumor volume compared to the control” value ([8]; 150 mg/kg bid x4d followed by 90 mg/kg bid, P≦0.01) was “a reduction in the tumor volume” and the half-life [9] was 5.4 to 8.14 h. It also gave a bioavailability [10] of 95 to 124%.
